Experiment [1] deals with NHDF fibroblasts (human normal skin fibroblasts). The settings on record: comparative studies by the inventors. The method, then: NHDF fibroblasts (human normal skin fibroblasts) were cultured in the DMEM medium supplemented with 10% FBS and a mixture of antibiotics—penicillin and streptomycin at 37° C., 5% CO2. […] After incubation with the compounds, the cells were washed twice with warm medium. The effect on cell viability was assessed using a standard MTT test.

Experiment [2] relates to TNF-alpha. The experiment is described as follows: TNF-alpha production by THP-1 derived macrophages (ELISA). Format: cell-based, human. The settings on record: 40 μM; LPS stimulation; FIG. 13. As for the experimental part:
(§1) Monocytes of the THP-1 line were cultured in RPMI 1640 medium supplemented with 10% FBS and 2 mM glutamine. For transformation of monocytes into macrophages, the cells were treated with 12.5 ng/mL PMA (phorbol 12-myristate 13-acetate) for 48 hours, then washed and incubated for 24 hours in a culture medium without PMA. After this time, urolithin A, urolithin B, iso-urolithin A and the corresponding glucuronides (GUA, GUB and GiUA) were added to the cells at a concentration of 40 μM. After 1 hour of incubation with the compounds, the cells were stimulated with LPS from Escherichia coli (10 ng/mL).
(§2) To assess the level of TNF-alpha production, the cells were incubated for 6 hours, to assess the expression of mRNA for TNF-alpha, the cells were incubated for 24 hours, to assess the effect on ERK1/2 phosphorylation, the cells were incubated for 35 minutes.
(§3) The level of TNF-alpha in the culture medium was determined using the immunochemical ELISA method (BD biosciences). Evaluation of the expression of mRNA for TNF-alpha was performed using real time PCR. After 24 hours of incubation, RNA was isolated using NucleoSpin RNA Clean-up (Macherey-Nagel). The amount and quality of isolated RNA was determined using 2100 Bioanalyzer (Agilent Technologies). The expression level of mRNA for TNF-α was determined using Brilliant II SYBR Green QPCR Kit and Aria Mx Real-Time PCR thermocycler (Agilent Technologies). The following were used as primers for TNF-alpha: forward: 5′-[…]-3′, reverse: 5′-[…]-3′. Beta-actin (ACTB) was used as the housekeeping gene; primer forward: 5′-[…]-3′, reverse: 5′-[…]-3′).
(§4) The obtained results of experiments on in vitro models were analyzed using the Statistica 13 program (StatSoft, Inc., Tulsa, OK, USA) and presented as mean values±SEM. Statistical significance was set at P≤0.05. The results with established normal distribution in the D'Agostin and Pearson test were prepared using analysis of variance (ANOVA). Parametric post-hoc analysis was performed using Dunnett's test.
In general terms: In an ELISA, binding on a coated surface is turned into a signal by an enzyme label.

A further experiment has as its system mRNA for TNF-alpha. The experiment is described as follows: TNF-alpha mRNA expression in THP-1 derived macrophages (real time PCR). It counts as cell-based, human. Particulars: 40 μM; LPS stimulation; FIG. 14. The method, then:
as §1, §2, §3, §4
For orientation: Quantitative PCR measures a nucleic acid by following its amplification.

For another experiment, the system named is ERK1/2. The experiment is described as follows: ERK1/2 phosphorylation in THP-1 derived macrophages (Western blotting). Format: cell-based, human. The settings on record: 40 μM; LPS 10 ng/mL, 35 min; FIG. 15. The method, then:
Monocytes of the THP-1 line were cultured in RPMI 1640 medium supplemented with 10% FBS and 2 mM glutamine. For transformation of monocytes into macrophages, the cells were treated with 12.5 ng/mL PMA (phorbol 12-myristate 13-acetate) for 48 hours, then washed and incubated for 24 hours in a culture medium without PMA. After this time, urolithin A, urolithin B, iso-urolithin A and the corresponding glucuronides (GUA, GUB and GiUA) were added to the cells at a concentration of 40 μM. After 1 hour of incubation with the compounds, the cells were stimulated with LPS from Escherichia coli (10 ng/mL). To assess the level of TNF-alpha production, the cells were incubated for 6 hours, to assess the expression of mRNA for TNF-alpha, the cells were incubated for 24 hours, to assess the effect on ERK1/2 phosphorylation, the cells were incubated for 35 minutes. […] The obtained results of experiments on in vitro models were analyzed using the Statistica 13 program (StatSoft, Inc., Tulsa, OK, USA) and presented as mean values±SEM. Statistical significance was set at P≤0.05. The results with established normal distribution in the D'Agostin and Pearson test were prepared using analysis of variance (ANOVA). Parametric post-hoc analysis was performed using Dunnett's test.
(In western blotting, separated proteins are transferred to a membrane and probed.)

The test system of experiment [3] is TNF-alpha. Description: TNF-alpha production by macrophages from human peripheral blood monocytes (ELISA). Format: cell-based. The settings on record: 40 μM; LPS 100 ng/mL, 24 h; FIG. 16.
Description: Monocytes were isolated from peripheral human blood by a standard method using dextran sedimentation and Ficoll Hypaque gradient centrifugation. After isolation, monocytes were suspended in RPMI 1640 medium supplemented with L-glutamine, HEPES, streptomycin, amphotericin and gentamicin, and 20% autologous serum. Cell culture was carried out under these conditions for 7 days. […] After 24h, TNF-alpha level in the medium was determined using the immunochemical ELISA method (BD biosciences). The obtained results of experiments on in vitro models were analyzed using the Statistica 13 program (StatSoft, Inc., Tulsa, OK, USA) and presented as mean values±SEM. Statistical significance was set at P≤0.05. The results with established normal distribution in the D'Agostin and Pearson test were prepared using analysis of variance (ANOVA). Parametric post-hoc analysis was performed using Dunnett's test.
Another experiment has as its target T1, tyrosinase (Mus musculus, UniProt P11344).
T1 sequence (P11344 19-533): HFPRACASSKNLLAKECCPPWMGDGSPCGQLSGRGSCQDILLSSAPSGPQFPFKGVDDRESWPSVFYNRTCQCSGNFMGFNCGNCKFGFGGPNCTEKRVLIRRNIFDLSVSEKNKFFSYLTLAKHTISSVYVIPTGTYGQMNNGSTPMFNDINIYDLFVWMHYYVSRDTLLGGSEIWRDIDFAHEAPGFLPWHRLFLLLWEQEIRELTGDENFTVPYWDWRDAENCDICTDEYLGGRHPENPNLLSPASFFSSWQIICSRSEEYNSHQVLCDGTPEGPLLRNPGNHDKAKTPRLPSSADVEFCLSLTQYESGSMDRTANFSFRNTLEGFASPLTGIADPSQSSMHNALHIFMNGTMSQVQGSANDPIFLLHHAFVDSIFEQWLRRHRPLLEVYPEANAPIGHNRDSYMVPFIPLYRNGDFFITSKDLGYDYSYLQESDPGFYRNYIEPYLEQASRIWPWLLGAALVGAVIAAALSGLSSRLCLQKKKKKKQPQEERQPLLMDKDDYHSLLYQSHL
The settings on record: B16 melanoma cells; cited from earlier work.

Results on three molecules are retold here after patent US12329738B2, “Urolithin A and a composition containing same for external use in inflammations of various etiologies” (WARSZAWSKI UNIWERSYTET MEDYCZNY, priority 2018, dated 2025).

As to `CC(=O)Oc1ccc2c(c1)oc(=O)c1cc(O)ccc12` [3-acetyl-urolithin A], the “Antiproliferative activity on human skin fibroblast cells” value in experiment [1] is “neither urolithin A, nor 8-acetyl-urolithin A, nor 3-acetyl-urolithin A showed antiproliferative activity”.
For `CC(=O)Oc1ccc2c(c1)c(=O)oc1cc(O)ccc12` [8-acetyl-urolithin A], the “Antiproliferative activity on human skin fibroblast cells” value in experiment [1] is given as “neither urolithin A, nor 8-acetyl-urolithin A, nor 3-acetyl-urolithin A showed antiproliferative activity”.
Consider `O=c1oc2cc(O)ccc2c2ccccc12` [urolithin B], for which the “TNF-alpha production by THP-1 derived macrophages” value in the experiment on TNF-alpha [2] was “did not show any activity”. In the experiment on mRNA for TNF-alpha, the “TNF-alpha mRNA expression in THP-1 derived macrophages” value was “inactive”. In the experiment with ERK1/2, the “ERK1/2 kinase phosphorylation in THP-1 derived macrophages” value is on record as “did not exhibit such activity”. In addition, in the experiment with TNF-alpha [3], the “Inhibition of TNF-alpha production by macrophages from human peripheral blood monocytes” value was “inactive”. In addition, the “Tyrosinase activity (depigmentation)” value at tyrosinase is “suppressing tyrosinase activity”.
